Read-outs that look alike come from different tables or passages of the source.
Key:
Glutaminase(Brain) = target: T1, Glutaminase(Brain) (Mus musculus, UniProt D3Z7P3); assay: Glutaminase enzyme activity using glutaminase enzyme from mice brain/kidney homogenate (Nessler's reagent, ammonia); assay type: biochemical; details: for inhibition at 0.1 µM: read-out: Glutaminase(Brain) activity % inhibition 0.1 μM; for inhibition at 1 µM: read-out: Glutaminase(Brain) activity % inhibition @1 μM
T1 sequence (D3Z7P3 55-674): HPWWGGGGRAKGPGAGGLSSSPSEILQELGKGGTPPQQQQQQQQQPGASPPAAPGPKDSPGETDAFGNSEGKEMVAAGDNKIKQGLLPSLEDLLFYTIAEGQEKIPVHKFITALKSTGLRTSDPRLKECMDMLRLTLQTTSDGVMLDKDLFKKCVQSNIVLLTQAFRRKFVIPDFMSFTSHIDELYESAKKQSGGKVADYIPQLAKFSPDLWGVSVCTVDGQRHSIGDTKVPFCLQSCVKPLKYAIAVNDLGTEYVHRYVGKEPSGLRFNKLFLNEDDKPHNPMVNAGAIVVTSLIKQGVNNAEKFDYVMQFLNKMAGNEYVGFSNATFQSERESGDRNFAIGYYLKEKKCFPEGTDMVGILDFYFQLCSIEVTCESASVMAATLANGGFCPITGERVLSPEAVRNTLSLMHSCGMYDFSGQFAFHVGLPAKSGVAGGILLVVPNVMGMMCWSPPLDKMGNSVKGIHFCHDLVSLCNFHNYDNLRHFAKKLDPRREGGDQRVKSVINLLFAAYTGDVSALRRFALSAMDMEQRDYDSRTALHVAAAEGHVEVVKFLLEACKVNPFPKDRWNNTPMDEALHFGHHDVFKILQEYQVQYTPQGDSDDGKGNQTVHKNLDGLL
Protocol: Assay 3: Determination of Glutaminase Enzyme Activity Using Glutaminase Enzyme from Mice Brain/Kidney
Step 1: Preparation of Tissue Homogenates:
Male Balb/c mice were administered 0.28 M ammonium chloride in drinking water for 7 days. The animals were sacrificed and brain/kidney organs collected on dry ice. […] The tissue was homogenized and supernatants were stored at −80° C. until the enzyme assay was performed.
Aim: Compounds were assessed for their ability to inhibit the enzymatic activity of L-glutaminase present in mice brain/kidney homogenate.
Protocol: The assay was performed using a colorimetric method using Nessler's Reagent by quantifying the amount of ammonia formed as a by product during the enzymatic conversion of L-glutamine to glutamate. In the routine assay, 16 μl of tissue homogenate is added to 33 μl of Tris-Hcl phosphate buffer (pH 8) along with 1 μl of DMSO/test compound containing the desired final concentration and vortexed briefly. 50 μl of 20 mM L-glutamine Tris buffer is added to start the reaction and incubated for 15 minutes at 37° C. The ammonia formed is detected by adding 20 μl of reaction mixture to cold water in a 96 well plate followed by 20 μl of Nessler's reagent. The colour developed is measured at 450 nm. Data Analysis: Activity of the test compound is reported as % inhibition and the data is analyzed using Graphpad Prism (Graphpad software; San Diego Calif.) for IC50 determination.

MDA-MB-231 = assay: In vitro cell proliferation assay (MTT), MDA-MB-231; assay type: cell-based; details: Homo sapiens, 72 hours
Protocol: (§1) Assay 4: In Vitro Cell Proliferation Assay in Cancer Cell Lines
(§2) Growth inhibition assays were carried out using 10% FBS supplemented media. Cells were seeded at a concentration of 5000-20,000 cells/well in a 96-well plate. Test compounds at a concentration range from 0.01 to 10000 nM were added after 24 hours. Growth was assessed using the 3-[4,5-dimethylthiazol-2-yl]-2,5-diphenyltetrazolium bromide (MTT) dye reduction test at 0 h (prior to the addition of the test compound) and 72 hours after the addition of test compound. Absorbance was read on a Fluostar Optima (BMG Labtech, Germany) at a wave length of 450 nm. Data were analysed using GraphPad Prism and percent inhibition due to the test compound compared to the control was calculated accordingly.

A549 = assay: In vitro cell proliferation assay (MTT), A549; assay type: cell-based; details: Homo sapiens, 72 hours
Protocol: as §1, §2

Rajii = assay: In vitro cell proliferation assay (MTT), Rajii; assay type: cell-based; details: 72 hours
Protocol: as §1, §2

Daudi = assay: In vitro cell proliferation assay (MTT), Daudi; assay type: cell-based; details: Homo sapiens, 72 hours
Protocol: as §1, §2

HCT116 = assay: In vitro cell proliferation assay (MTT), HCT116; assay type: cell-based; details: Homo sapiens, HCT-116, 72 hours
Protocol: as §1, §2

| Compound | inhibition at 0.1 µM (Glutaminase(Brain); 0.1 μM, mice brain homogenate) [%] | inhibition at 1 µM (Glutaminase(Brain); 1 μM, mice brain homogenate) [%] | GI50 (MDA-MB-231) [nM] | also measured |
| --- | --- | --- | --- | --- |
| O=C(Cc1cccc(OC(F)(F)F)c1)Nc1ccc(N2CCCC(c3nnc(NC(=O)Cc4cccnc4)s3)C2)cn1 (racemic) [Example 3, (RS)-2-(Pyridin-3-yl)-N-(5-(1-(6-(2-(3-(trifluoromethoxy)phenyl)acetamido)pyridin-3-yl)piperidin-3-yl)-1,3,4-thiadiazol-2-yl)acetamide] | 25 to 50 | 50 to 75 | 1000 to 3000 |  |
| O=C(Cc1cccc(OC(F)(F)F)c1)Nc1ccc(N2CCC(c3nnc(NC(=O)Cc4cccnc4)s3)CC2)cn1 [Example-4, 2-(Pyridin-3-yl)-N-(5-(1-(6-(2-(3-(trifluoromethoxy)phenyl)acetamido)pyridin-3-yl)piperidin-4-yl)-1,3,4-thiadiazol-2-yl)acetamide] | 25 to 50 | 50 to 75 | 250 to 500 |  |
| O=C(Cc1ccccn1)Nc1ccc(N2CCCC(c3nnc(NC(=O)Cc4cccc(OC(F)(F)F)c4)s3)C2)cn1 (stereo not drawn) [Example-7, 2-(Pyridin-2-yl)-N-(5-(3-(5-(2-(3-(trifluoromethoxy)phenyl)acetamido)-1,3,4-thiadiazol-2-yl)piperidin-1-yl)pyridin-2-yl)acetamide] | < 25 | < 25 |  | melting point: 151 to 153 °C |
| O=C(Cc1cccc(OC(F)(F)F)c1)Nc1ccc(N2CCC(c3nnc(NC(=O)Cc4ccccn4)s3)CC2)nn1 [Example-8, 2-(pyridin-2-yl)-N-(5-(1-(6-(2-(3-(trifluoromethoxy)phenyl)acetamido)pyridazin-3-yl)piperidin-4-yl)-1,3,4-thiadiazol-2-yl)acetamide] |  |  |  | GI50 (A549): 100 to 250 nM; inhibition at 0.1 µM (Glutaminase(Brain)): 75 to 100%; inhibition at 1 µM (Glutaminase(Brain)): 75 to 100%; GI50 (Rajii): < 100 nM; GI50 (Daudi): < 100 nM; GI50 (HCT116): 250 to 500 nM |
| O=C(Cc1cccc(OC(F)(F)F)c1)Nc1ccc(N2CCCC(c3nnc(NC(=O)Cc4ccccn4)s3)C2)nn1 (stereo not drawn) [Example-9, 2-(Pyridin-2-yl)-N-(5-(1-(6-(2-(3-(trifluoromethoxy)phenyl)acetamido)pyridazin-3-yl)piperidin-3-yl)-1,3,4-thiadiazol-2-yl)acetamide] |  |  | 100 to 250 | inhibition at 0.1 µM (Glutaminase(Brain)): 50 to 75%; inhibition at 1 µM (Glutaminase(Brain)): 75 to 100% |
| O=C(Cc1cccc(OC(F)(F)F)c1)Nc1ccc(N2CCC(c3nnc(NC(=O)Cc4cccnc4)s3)CC2)nn1 [Example-10, 2-(Pyridin-3-yl)-N-(5-(1-(6-(2-(3-(trifluoromethoxy)phenyl)acetamido)pyridazin-3-yl)piperidin-4-yl)-1,3,4-thiadiazol-2-yl)acetamide] | 50 to 75 | 75 to 100 | 100 to 250 |  |
| CS(=O)(=O)Nc1cccc(CC(=O)Nc2nnc(C3CCN(c4ccc(NC(=O)Cc5cccc(OC(F)(F)F)c5)nn4)CC3)s2)c1 [Example-11, 2-(3-(Methylsulfonamido)phenyl)-N-(5-(1-(6-(2-(3-(trifluoromethoxy)phenyl)acetamido)pyridazin-3-yl)piperidin-4-yl)-1,3,4-thiadiazol-2-yl)acetamide] | < 25 | 50 to 75 | 250 to 500 |  |
| O=C(Cc1ccccc1Cl)Nc1ccc(N2CCC(c3nnc(NC(=O)Cc4ccccn4)s3)CC2)nn1 [Example-12, 2-(2-Chlorophenyl)-N-(6-(4-(5-(2-(pyridin-2-yl)acetamido)-1,3,4-thiadiazol-2-yl)piperidin-1-yl)pyridazin-3-yl)acetamide] | 50 to 75 | 75 to 100 | < 100 |  |
| O=C(Cc1ccccc1F)Nc1ccc(N2CCC(c3nnc(NC(=O)Cc4ccccn4)s3)CC2)nn1 [Example-14, 2-(2-Fluorophenyl)-N-(6-(4-(5-(2-(pyridin-2-yl)acetamido)-1,3,4-thiadiazol-2-yl)piperidin-1-yl)pyridazin-3-yl)acetamide] | 75 to 100 | 75 to 100 | < 100 |  |
| O=C(Cc1cccc(OC(F)(F)F)c1)Nc1ccc(N2CCC(c3nnc(NC(=O)Cc4cnccn4)s3)CC2)nn1 [Example-15, 2-(Pyrazin-2-yl)-N-(5-(1-(6-(2-(3-(trifluoromethoxy)phenyl)acetamido)pyridazin-3-yl)piperidin-4-yl)-1,3,4-thiadiazol-2-yl)acetamide] | 50 to 75 | 75 to 100 | < 100 |  |
| O=C(Cc1ccccn1)Nc1ccc(N2CCC(c3nnc(NC(=O)Cc4cccc(OC(F)(F)F)c4)s3)CC2)nn1 [Example-17, 2-(Pyridin-2-yl)-N-(6-(4-(5-(2-(3-(trifluoromethoxy)phenyl)acetamido)-1,3,4-thiadiazol-2-yl)piperidin-1-yl)pyridazin-3-yl)acetamide] |  |  | < 100 | inhibition at 0.1 µM (Glutaminase(Brain)): 75 to 100%; inhibition at 1 µM (Glutaminase(Brain)): 75 to 100% |
| O=C(Cc1cccnc1)Nc1ccc(N2CCC(c3nnc(NC(=O)Cc4cccc(OC(F)(F)F)c4)s3)CC2)nn1 [Example-18, 2-(Pyridin-3-yl)-N-(6-(4-(5-(2-(3-(trifluoromethoxy)phenyl)acetamido)-1,3,4-thiadiazol-2-yl)piperidin-1-yl)pyridazin-3-yl)acetamide] | 75 to 100 | 75 to 100 | < 100 |  |

Now from value to compound, other results behind:

| inhibition at 0.1 µM (Glutaminase(Brain); 0.1 μM, mice brain homogenate) [%] | inhibition at 1 µM (Glutaminase(Brain); 1 μM, mice brain homogenate) [%] | GI50 (MDA-MB-231) [nM] | Compound | also measured |
| --- | --- | --- | --- | --- |
| 25 to 50 | 50 to 75 |  | Cc1ccccc1CC(=O)Nc1nnc(C2CCN(c3ccc(NC(=O)Cc4cccc(OC(F)(F)F)c4)nn3)CC2)s1 [Example-31, 2-o-Tolyl-N-(5-(1-(6-(2-(3-(trifluoromethoxy)phenyl)acetamido)pyridazin-3-yl)piperidin-4-yl)-1,3,4-thiadiazol-2-yl)acetamide] |  |
| 25 to 50 | 50 to 75 |  | O=C(Cc1cccc(OC(F)(F)F)c1)Nc1ccc(N2CCC(c3nnc(NC(=O)Cc4c[nH]c5ccccc45)s3)CC2)nn1 [Example-32, N-(6-(4-(5-(2-(1H-indol-3-yl)acetamido)-1,3,4-thiadiazol-2-yl)piperidin-1-yl)pyridazin-3-yl)-2-(3-(trifluoromethoxy)phenyl)acetamide] |  |
| 25 to 50 | 50 to 75 |  | O=C(Cc1ccccc1F)Nc1ccc(N2CCC(c3nnc(NC(=O)Cc4cnccn4)s3)CC2)nn1 [Example-33, 2-(2-Fluorophenyl)-N-(6-(4-(5-(2-(pyrazin-2-yl)acetamido)-1,3,4-thiadiazol-2-yl)piperidin-1-yl)pyridazin-3-yl)acetamide] |  |
| 25 to 50 | 50 to 75 |  | O=C(Cc1cccc(OC(F)(F)F)c1)Nc1ccc(N2CCC(c3nnc(NC(=O)Cc4cccc(N5CCC5)c4)s3)CC2)nn1 [Example-34, 2-(3-(Azetidin-1-yl)phenyl)-N-(5-(1-(6-(2-(3-(trifluoromethoxy)phenyl)acetamido)pyridazin-3-yl)piperidin-4-yl)-1,3,4-thiadiazol-2-yl)acetamide] |  |
| 50 to 75 | 75 to 100 |  | O=C(Cc1ccccn1)Nc1ccc(N2CCC(c3nnc(NC(=O)Cc4cccc(Cl)c4)s3)CC2)nn1 [Example-35, 2-(3-Chlorophenyl)-N-(5-(1-(6-(2-(pyridin-2-yl)acetamido)pyridazin-3-yl)piperidin-4-yl)-1,3,4-thiadiazol-2-yl)acetamide] |  |
| 25 to 50 | 50 to 75 |  | O=C(Cc1cccc(OC(F)(F)F)c1)Nc1ccc(N2CCC(c3nnc(NC(=O)C(CO)c4ccccc4)s3)CC2)nn1 (stereo not drawn) [Example-36, 3-Hydroxy-2-phenyl-N-(5-(1-(6-(2-(3-(trifluoromethoxy)phenyl)acetamido)pyridazin-3-yl)piperidin-4-yl)-1,3,4-thiadiazol-2-yl)propanamide] |  |

— patent US10611759B2, “Glutaminase inhibitors” (Rhizen Pharmaceuticals SA, priority 2014, dated 2020)
